From patent US8697656B2, “Compounds, in particular peptides, compositions comprising them and cosmetic and dermo-pharmaceutical uses” (SEDERMA, priority 2009, dated 2014)
Non-standard residues stand in square brackets, D forms with d. Residues, ends and D or L forms follow the SMILES beside them. *: point of attachment. Met(O2) = CS(=O)(=O)CC[CH](N)C(=O)O; Palmitoyl = CCCCCCCCCCCCCCCC(=O)*; Ava = NCCCCC(=O)O

Experiments:
dermal NHF = experiment: Immunostaining method for collagen I on dermal NHF (Table 7); type: cell-based, human; conditions: Table 7 Test 2
Description: Table 7 Showing % Differences in Collagen I in the Dermis Compared to the Control for Dioxygenated Peptide Compounds According to the Immunostaining Method or to ELISA Test on Dermal NHF

[1] = system: Normal human dermal fibroblasts (NHF); experiment: ELISA test on normal human dermal fibroblasts (NHF): macromolecules in culture supernatants; type: cell-based; conditions: Table 7 Test 1
Method: ELISA Test on Normal Human Dermal Fibroblasts (NHF)
This test examines the dermal molecules.
Normal human dermal fibroblasts are cultured in multi-well plates. The cells either are or are not placed in contact with the test substances for 3 days. The culture supernatants are removed and the quantity of macromolecules present (collagen I, fibronectin, collagen IV and hyaluronic acid) is assayed by ELISA.

| Compound | Collagen I in the dermis, Test 2 (% difference compared to the control) (dermal NHF; 2 ppm) | Collagen I in the dermis, Test 2 (% difference compared to the control) (dermal NHF; 4 ppm) | Collagen I in the dermis, Test 2 (% difference compared to the control) (dermal NHF; 6 ppm) | Collagen I in the dermis, Test 1 (% difference compared to the control) ([1]; 2 ppm) | Collagen I in the dermis, Test 1 (% difference compared to the control) ([1]; 4 ppm) | Collagen I in the dermis, Test 1 (% difference compared to the control) ([1]; 6 ppm) |
| --- | --- | --- | --- | --- | --- | --- |
| CCCCCCCCCCCCCCCC(=O)NCCCCC(=O)NC(CCS(C)(=O)=O)C(N)=O (stereo not drawn) [Pal-Ava-MO2-NH2] | +495% | +667% | +557% |  |  |  |
| CCCCCCCCCCCCCCCC(=O)NC(CCS(C)(=O)=O)C(=O)NCCCCC(N)=O (stereo not shown) [Pal-MO2-Ava-NH2] | +375% | +582% | +461% |  |  |  |
| CCCCCCCCCCCCCCCC(=O)NC(CCS(C)(=O)=O)C(=O)NC(CCCCN)C(=O)O (stereo not shown) [Pal-MO2-K-OH] (Palmitoyl-[Met(O2)]-Lys-OH; configuration not given here) | +270% | +457% | +226% |  |  |  |
| Pal-K-Ava-MO2-K-OH: Dioxygenated peptide compound, SEQ ID NO 35 (Palmitoyl-K[Ava][Met(O2)]K-OH; SMILES CCCCCCCCCCCCCCCC(=O)N[C@@H](CCCCN)C(=O)NCCCCC(=O)N[C@@H](CCS(C)(=O)=O)C(=O)N[C@@H](CCCCN)C(=O)O) |  |  |  | +63% | +167% |  |
| Pal-K-F-MO2-K-OH: Dioxygenated peptide compound, SEQ ID NO 31 (Palmitoyl-KF[Met(O2)]K-OH; SMILES CCCCCCCCCCCCCCCC(=O)N[C@@H](CCCCN)C(=O)N[C@@H](Cc1ccccc1)C(=O)N[C@@H](CCS(C)(=O)=O)C(=O)N[C@@H](CCCCN)C(=O)O) |  |  |  |  | +80% | +81% |
| Pal-K-MO2-Ava-K-OH: Dioxygenated peptide compound, SEQ ID NO 36 (Palmitoyl-K[Met(O2)][Ava]K-OH; SMILES CCCCCCCCCCCCCCCC(=O)N[C@@H](CCCCN)C(=O)N[C@@H](CCS(C)(=O)=O)C(=O)NCCCCC(=O)N[C@@H](CCCCN)C(=O)O) |  |  |  | +75% |  |  |
| Pal-K-MO2-F-K-OH: Dioxygenated peptide compound, SEQ ID NO 34 (Palmitoyl-K[Met(O2)]FK-OH; SMILES CCCCCCCCCCCCCCCC(=O)N[C@@H](CCCCN)C(=O)N[C@@H](CCS(C)(=O)=O)C(=O)N[C@@H](Cc1ccccc1)C(=O)N[C@@H](CCCCN)C(=O)O) |  |  |  |  | +91% |  |
| Pal-K-MO2-T-K-OH: Dioxygenated peptide compound, SEQ ID NO 33 (Palmitoyl-K[Met(O2)]TK-OH; SMILES CCCCCCCCCCCCCCCC(=O)N[C@@H](CCCCN)C(=O)N[C@@H](CCS(C)(=O)=O)C(=O)N[C@H](C(=O)N[C@@H](CCCCN)C(=O)O)[C@@H](C)O) |  | +192% | +217% |  | +45% | +194% |
| Pal-K-T-F-MO2-NH2: Dioxygenated peptide compound, SEQ ID NO 32 (Palmitoyl-KTF[Met(O2)]-NH2; SMILES CCCCCCCCCCCCCCCC(=O)N[C@@H](CCCCN)C(=O)N[C@H](C(=O)N[C@@H](Cc1ccccc1)C(=O)N[C@@H](CCS(C)(=O)=O)C(N)=O)[C@@H](C)O) | +267% | +420% | +400% |  | +106% | +121% |
| Pal-K-T-MO2-K-OH: Dioxygenated peptide compound, SEQ ID NO 30 (Palmitoyl-KT[Met(O2)]K-OH; SMILES CCCCCCCCCCCCCCCC(=O)N[C@@H](CCCCN)C(=O)N[C@H](C(=O)N[C@@H](CCS(C)(=O)=O)C(=O)N[C@@H](CCCCN)C(=O)O)[C@@H](C)O) | +273% | +341% | +262% |  | +75% | +161% |
| Pal-MO2-T-K-F-OH: Dioxygenated peptide compound, SEQ ID NO 29 | +218% | +456% | +520% |  | +111% | +148% |
